Measured values reported in US8445006B2, “Biomolecular coating for implants” (Georgia Tech Research Corporation, priority 2006, dated 2013).

How the values were obtained:
[1] = tested on: bone marrow stromal cells; test: Osteoblast-specific gene expression by qRT-PCR; type: cell-based, rat
Method: (§1) Primary bone marrow stromal cells were harvested from the femora of young adult male Wistar rats in accordance with an IACUC-approved protocol. After excision, hindleg femora and tibiae were cleared of soft tissue and rinsed in growth medium (α-minimal essential medium supplemented with 10% fetal bovine serum, 1% penicillin-streptomycin, and 0.3 μg/ml amphotericin B). The ends of the long bones were then removed and the marrow space was flushed with culture medium (3-5 ml), using a syringe with an 18-gauge needle. Marrow isolates were pooled, centrifuged, resuspended in growth medium, and seeded for adhesion-dependent selection on tissue culture polystyrene dishes. Non-adherent hematopoietic cells were removed during subsequent medium exchanges, which occurred every other day. Cells were subcultured every two days according to standard techniques. For in vitro osteogenic assays, cells were seeded at 10,000 cells/cm^2 in growth medium. After 24 h, cultures were maintained in osteogenic medium consisting of growth medium supplemented with 50 μg/ml L-ascorbic acid and 3 mM sodium β-glycerophosphate.
Gene expression was analyzed by qRT-PCR. Total RNA was isolated at 7 days in culture using the Qiagen RNeasy RNA isolation kit. During RNA isolation and purification, samples were treated with DNaseI (27 Kunitz units/sample) for 15 min at room temperature to eliminate any genomic DNA contamination. The concentration of purified RNA was quantified using a NanoDrop™ (NanoDrop Technologies) and 1 μg of total RNA was used to synthesize cDNA templates by oligo(dT) priming using the Superscript First-Strand cDNA Synthesis System™.
qRT-PCR was performed with the ABI Prism 7700 Sequence Detection System (Applied Biosystems; 40 cycles; melting for 15 s at 95° C.; annealing and extending for 60 s at 60° C.) using SYBR Green DNA intercalating dye. Gene transcript concentration in the sample cDNA template solutions was quantified by preparing a functional range of dilutions from an absolute standard for each gene. Linear standard curves were then generated by plotting the log of the known concentration versus the CT value (the cycle number at which the fluorescence reached a threshold level). Oligonucleotide primers (Table 1) were designed using Primer Express™ software (Applied Biosystems).

[2] = tested on: rat tibia cortical bone; test: Rat tibia cortical bone implantation, histology and bone-implant contact histomorphometry; type: in vivo; conditions: 4 weeks; for histology: bone matrix around implants: poly(OEGMA) brush implants, 0.9 pmol/cm^2
Method: (§2) Commercially pure titanium implants (FIG. 4) were sonicated in de-ionized water for 20 min to remove surface debris. Implants were then dipped in 4% HF for 30 sec to remove the existing oxide layer and then incubated in 35% HNO3 for 30 min at 50° C. to regenerate a new oxide coating. Samples were transferred to 1.8 N NaOH for 1 min to terminate the oxidation reaction. Implants were then rinsed and boiled in de-ionized water for 1 h. To create the bioactive coating, the implants were incubated in 20 μg/ml GFOGER peptide (SEQ ID NO:1) or type I collagen solution for 1 h. Control titanium rods were incubated in PBS.
(§3) Implantations were conducted in accordance with an IACUC-approved protocol. Both hind legs of anesthetized, mature Sprague-Dawley male rats (250-350 g) were shaved and scrubbed with alcohol. The medial aspect of the proximal tibial metaphysis was exposed through an antero-medial skin incision, leaving the medial collateral ligament intact. Using a saline-cooled drill, two defects were created in each tibia. Sterile implant rods were press fit into the defects. Periosteum was mobilized and sutured over the implantation site, and the skin was closed with wound clips. Subjects were euthanized after 4 weeks and proximal tibiae were fixed in neutral buffered formalin for histology or recovered without fixation and maintained in PBS-moistened gauze for immediate mechanical testing.
Excised tibiae were fixed in 10% neutral buffered formalin for 1 week. […] Ground sections of 50-80 μm were generated using the Exakt Grinding System™. Two longitudinal ground sections were generated per tibia, each containing two titanium plugs inserted transverse to the tibia's long axis. Sections were then stained with Sanderson's Rapid Bone Stain™ and a van Gieson counter stain. Bone implant contact (BIC) was measured as the percentage of implant's circumference that was in direct contact with bone tissue (Adobe Photoshop® CS imaging software).
(§4) To evaluate the performance of the bioactive GFOGER peptide (SEQ ID NO:1) treatment in vivo, osseointegration in a rat tibia cortical bone model was quantified using quantitative histomorphometry and pull-out mechanical testing. A cylindrical titanium implant rod with a tapered stop collar was designed (FIG. 4). The tapered head ensures that all implants are inserted into the bone at the same depth, guaranteeing uniform bone contact among treatments. Using a saline-cooled drill, two defects 2 mm in diameter were created in the medial aspect of the proximal tibial metaphysis. Implant rods consisting of GFOGER peptide (SEQ ID NO:1) functionalized or untreated (control) titanium were press fit into the cortical defects. After four weeks, the rat tibiae were harvested and evaluated for bone apposition by histological staining and mechanical integration by pull-out testing. […] Representative micrographs show 50-80 μm longitudinal ground sections of rat tibia stained with Sanderson's Rapid Bone Stain™ and van Gieson counterstain. Cells stain dark to light blue, soft tissue elements stain blue-green, and bone matrix stains yellow orange to autumn orange.
(§5) Osseointegration of implants in a rat tibia cortical bone model was quantified to evaluate the in vivo performance of the engineered titanium surfaces in bone healing. Importantly, this in vivo model provides a rigorous platform to evaluate implant coating function in a relevant orthopaedic setting. Two 2.0-mm diameter defects were drilled into the medial aspect of the proximal tibial metaphysis using a saline cooled drill. Tapered cylindrical implants (FIG. 4) of clinical-grade titanium were press-fit into the cortical defects.

[3] = tested on: rat tibia cortical bone; test: Rat tibia cortical bone implantation, pull-out mechanical testing; type: in vivo
Method: as §2, §3, §4, §5

[4] = tested on: bone marrow stromal cells; test: Alkaline phosphatase biochemical activity assay; type: cell-based, rat
Method: as §1, with “After 24 h, cultures were maintained in osteogenic medium consisting of growth medium supplemented with 50 μg/ml L-ascorbic acid and 3 mM sodium β-glycerophosphate.” left out
ALP activity was quantified at 7 days in culture using a modification of the Sodek and Berkman method. […] After sonication and centrifugation, the protein concentration was quantified using a Pierce Micro BCA protein assay kit. […] After a 60 min incubation at 37° C., the fluorescence was read at an excitation of 360 nm and an emission of 465 nm on an HTS 7000 Plus BioAssay Reader (Perkin Elmer). […]

[5] = 7-day cultures, tethered brushes vs RGD supports
[6] = 4 weeks, tethered brushes 0.9 pmol/cm^2
[7] = 7 day cultures, adsorbed coating vs untreated titanium

Substance	any differentiation marker vs serum-exposed unmodified titanium ([1]; tethered brushes)	histology: bone matrix around implants [2]	bone apposition and mechanical fixation among brush implant groups ([3]; 4 weeks, poly(OEGMA) brush implants)	bone sialoprotein (BSP) transcript levels [1, 5]	osteocalcin (OCN) transcript levels [1, 5]	Runx2/Cbfa1 expression levels ([1]; 7-day cultures, tethered brushes vs equimolar RGD brushes)	alkaline phosphatase activity ([4]; tethered brushes vs RGD-functionalized surfaces)	bone-implant apposition ([2]; passively coated (20 μg/ml) vs unmodified titanium or pFN-coated)	bone-implant contact area vs unmodified titanium implant ([2]; tethered brush implants)	mechanical fixation vs unmodified titanium ([3]; 4 weeks, tethered brushes)	enhancement in fixation over RGD-tethered implants [3, 6] [fold]	improvement in fixation compared to unmodified poly(OEGMA) brush coating [3, 6] [fold]	dependence of mechanical fixation on tethered surface density ([3]; varying tethered densities, hyperbolic relationship R^2=0.87)	Runx2/Cbfa1 expression levels [1, 7]	bone sialoprotein gene expression [1, 7]	osteocalcin gene expression [1, 7]	ALP activity ([4]; 7 days, adsorbed coating vs untreated titanium)	bone apposition (bone implant contact, BIC) ([2]; passively coated implants vs untreated titanium)	histology: peri-implant bone mineral ([2]; passively coated titanium implants (20 μg/ml))	mechanical fixation (pull-out force) ([3]; 4 weeks, vs type I collagen or untreated titanium)
GRGDSPC [RGD peptide, linear RGD oligopeptide purchased from BACHEM; primarily supports αvβ3-mediated adhesion, reference compound]	No differences were observed	Less bone tissue was observed	no differences in bone apposition or mechanical fixation																	
FNIII7-10: monobiotinylated recombinant fibronectin fragment spanning the 7-10th type III repeats of fibronectin; α5β1 integrin ligand		extensive and contiguous bone matrix		increased transcript levels	increased transcript levels	elevated	higher alkaline phosphatase activity	enhanced bone-implant apposition	significantly higher	higher mechanical fixation	2.9	~4	increased with FNIII7-10 surface density							
GGYGGGPC(GPP)5GFOGER(GPP)5GPC [GFOGER peptide]														elevated	greater levels of gene expression	greater levels of gene expression	elevated levels of activation	nearly two-fold enhancement	substantial and contiguous bone mineral	significantly higher mechanical fixation
